Earlier results as cited in US20090186834A1, “DIPHENYLHETEROCYCLE CHOLESTEROL ABSORPTION INHIBITORS” (MICROBIA, INC., priority 2005, published 2009).

Experiments:
[1] = test system: fat-SOluble vitamin absorption; settings: in humans
[2] = test system: absorption of taurocholic acid; settings: in vivo

For `O=C1[C@H](CC[C@H](O)c2ccc(F)cc2)[C@@H](c2ccc(O)cc2)N1c1ccc(F)cc1` [ezetimibe, (3R,4S)-1-(4-fluorophenyl)-3-[(3S)-3-(4-fluorophenyl)-3-hydroxypropyl]-4-(4-hydroxyphenyl)azetidin-2-one], which “effect on fat-SOluble vitamin absorption” value [1] is on record?
The value was “does not appear to affect”.

What about the “inhibition of the absorption of taurocholic acid” value [2] of the same compound?
The value was “does not inhibit”.
